Measured values: patent US11174291B2, “Silstatin compounds” (Arizona Board of Regents on behalf of Arizona State …, priority 2015, dated 2021)

Columns and labels:
[1] = test system: SF268; experiment: NCI sulforhodamine B growth inhibition, CNS cancer cells; type: cell-based, human; conditions: 48 h
Description: (§1) Inhibition of human cancer cell growth was assessed using the National Cancer Institute's standard sulforhodamine B assay as previously described.^19In summary, cells in a 5% fetal bovine serum/RPMI1640 medium were inoculated in 96-well plates and incubated for 24 hrs. Next, serial dilutions of the compounds were added. After 48 h, the plates were fixed with trichloroacetic acid, stained with sulforhodamine B, and read with an automated microplate reader. A growth inhibition of 50% (GI50 or the drug concentration causing a 50% reduction in the net protein increase) was calcd from optical density data with Immunosoft software. Normal cells were treated in identical conditions. Normal human prostate CRL-2221 (PZ—HPV-7) was grown in MEM 10% FBS and normal human breast MCF-10A in MEGM kit.

[2] = test system: MCF-10A; experiment: Sulforhodamine B growth inhibition, normal breast cells; type: cell-based, human; conditions: for Growth inhibition of human normal cell lines GI50: MCF-10A normal breast
Description: as §1

[3] = test system: CRL-2221 (PZ—HPV-7); experiment: Sulforhodamine B growth inhibition, normal prostate cells; type: cell-based, human; conditions: for Growth inhibition of human normal cell lines GI50: CRL-2221 normal prostate
Description: as §1

[4] = test system: DU-145; experiment: NCI sulforhodamine B growth inhibition, prostate cancer cells; type: cell-based, human; conditions: DU145 prostate, 48 h
Description: as §1

[5] = test system: KM20L2; experiment: NCI sulforhodamine B growth inhibition, colon cancer cells; type: cell-based, human; conditions: 48 h
Description: as §1

[6] = test system: MCF-7; experiment: NCI sulforhodamine B growth inhibition, breast cancer cells; type: cell-based, human; conditions: MCF-7 breast, 48 h
Description: as §1

[7] = test system: NCI-H460; experiment: NCI sulforhodamine B growth inhibition, lung cancer cells; type: cell-based, human; conditions: 48 h
Description: as §1

[8] = test system: BXPC-3; experiment: NCI sulforhodamine B growth inhibition, pancreas cancer cells; type: cell-based, human; conditions: BXPC3 pancreas, 48 h
Description: as §1

[9] = test system: mini panel of cancer cell lines; experiment: Growth inhibition across the mini panel of cancer cell lines; type: cell-based, human; conditions: for Cancer cell growth inhibition, assessment in words: mini panel of cancer cell lines (Table 1)
Description: as §1
The growth inhibition property of the silstatins and some intermediates were evaluated against a mini panel of cancer cell lines (Table 1).

[10] = amide bond; 36-membered ring; 2 steps

CC(C)C[C@H]1OC(=O)[C@H](C(C)C)NC(=O)[C@H](C)OC(=O)[C@@H](C(C)C)NC(=O)[C@@H](CC2CCCCC2)OC(=O)[C@H]([C@@H](C)O)NC(=O)[C@H](C)OC(=O)[C@@H](C(C)C)NC(=O)[C@@H](CC(C)C)OC(=O)[C@H](C(C)C)NC(=O)[C@H](C)OC(=O)[C@@H](C(C)C)NC1=O [Silstatin 7 (18a), Cyclo-{Thr-D-Hcha-D-Val-Lac-[Val-D-Hica-D-Val-Lac]2}]
Growth inhibition of human cancer cell lines GI50 [1]: 3.1 ng/mL | Growth inhibition of human normal cell lines GI50 [2]: 4 ng/mL | Growth inhibition of human normal cell lines GI50 [3]: 4 ng/mL | Growth inhibition of human cancer cell lines GI50 [4]: 3 ng/mL | Growth inhibition of human cancer cell lines GI50 [5]: 1.5 ng/mL | Growth inhibition of human cancer cell lines GI50 [6]: 1.4 ng/mL | Growth inhibition of human cancer cell lines GI50 [7]: 3.2 ng/mL | Growth inhibition of human cancer cell lines GI50 [8]: 3.8 ng/mL | Cancer cell growth inhibition, assessment in words [9]: rescuing the activity

CC(C)C[C@H]1OC(=O)[C@H](C(C)C)NC(=O)[C@H](C)OC(=O)[C@@H](C(C)C)NC(=O)[C@@H](CC(C)C)OC(=O)[C@H](C(C)C)NC(=O)[C@H](C)OC(=O)[C@@H](C(C)C)NC(=O)[C@@H](CC2CCCCC2)OC(=O)[C@H](Cc2ccc(O)cc2)NC(=O)[C@H](C)OC(=O)[C@@H](C(C)C)NC1=O [Silstatin 8 (18b), Cyclo-{Tyr-D-Hcha-D-Val-Lac-[Val-D-Hica-D-Val-Lac]2}]
Growth inhibition of human cancer cell lines GI50 [1]: 3 ng/mL | Growth inhibition of human cancer cell lines GI50 [4]: 5.4 ng/mL | Growth inhibition of human cancer cell lines GI50 [5]: 2.1 ng/mL | Growth inhibition of human cancer cell lines GI50 [6]: 1.1 ng/mL | Growth inhibition of human cancer cell lines GI50 [7]: 4 ng/mL | Growth inhibition of human cancer cell lines GI50 [8]: 6 ng/mL | Cancer cell growth inhibition, assessment in words [9]: rescuing the activity

CC(C)C[C@H]1OC(=O)[C@H](C(C)C)NC(=O)[C@H](C)OC(=O)[C@@H](C(C)C)NC(=O)[C@@H](CC2CCCCC2)OC(=O)[C@H]([C@@H](C)OC(=O)CCCN(C)C(=O)OCc2ccc(O[C@@H]3O[C@H](C(=O)O)[C@@H](O)[C@H](O)[C@H]3O)c([N+](=O)[O-])c2)NC(=O)[C@H](C)OC(=O)[C@@H](C(C)C)NC(=O)[C@@H](CC(C)C)OC(=O)[C@H](C(C)C)NC(=O)[C@H](C)OC(=O)[C@@H](C(C)C)NC1=O [Silstatin 28]
Growth inhibition of human cancer cell lines GI50 [1]: 50 ng/mL | Decrease of normal cell growth inhibition activity with respect to the parent silstatin 7 (18a) ([2]; MCF-10A): 62.5 times | Growth inhibition of human normal cell lines GI50 [2]: 250 ng/mL | Decrease of normal cell growth inhibition activity with respect to the parent silstatin 7 (18a) ([3]; CRL-2221): 12.5 times | Growth inhibition of human normal cell lines GI50 [3]: 50 ng/mL | Growth inhibition of human cancer cell lines GI50 [4]: 130 ng/mL | Growth inhibition of human cancer cell lines GI50 [5]: 40 ng/mL | Growth inhibition of human cancer cell lines GI50 [6]: 31 ng/mL | Growth inhibition of human cancer cell lines GI50 [7]: 70 ng/mL | Growth inhibition of human cancer cell lines GI50 [8]: 200 ng/mL | Decrease of cancer cell growth inhibition activity with respect to the parent silstatin 7 ([9]; across the six cancer cell lines of Table 1): 16-52 times

Cyclo-[Val-D-Hcha-D-Val-Lac]3
ring closure, isolated yield [10]: 23%

Cyclo-[Val-D-Hica-D-Val-Lac]3
ring closure, isolated yield [10]: 28%

Cyclo-{Thr(tBu)-D-Hcha-D-Val-Lac-[Val-D-Hcha-D-Val-Lac]2}
ring closure, isolated yield [10]: 29%

Cyclo-{Thr(tBu)-D-Hcha-D-Val-Lac-[Val-D-Hica-D-Val-Lac]2}
ring closure, isolated yield [10]: 48%

Cyclo-{Thr(tBu)-D-Hica-D-Val-Lac-[Val-D-Hica-D-Val-Lac]2}
ring closure, isolated yield [10]: 33%

Cyclo-{Tyr(tBu)-D-Hcha-D-Val-Lac-[Val-D-Hcha-D-Val-Lac]2}
ring closure, isolated yield [10]: 34%

Cyclo-{Tyr(tBu)-D-Hcha-D-Val-Lac-[Val-D-Hica-D-Val-Lac]2}
ring closure, isolated yield [10]: 22%

Cyclo-{Tyr(tBu)-D-Hica-D-Val-Lac-[Val-D-Hica-D-Val-Lac]2}
ring closure, isolated yield [10]: 11%
